Experimental data from patent US20060014806A1 (published 2006).

Row | SMILES | melting point [°C]
1 | COC(=O)NCC#Cc1ccc(OCCCOc2c(Cl)cc(OCC=C(Cl)Cl)cc2Cl)cc1 | 78 to 81
2 | CC(C)NC(=O)/C(C#N)=C/c1ccc(OCCCOc2c(Cl)cc(OCC=C(Cl)Cl)cc2Cl)cc1 | 88 to 93
3 | CO/N=C1/C=C(c2ccc(OCCCOc3c(Cl)cc(OCC=C(Cl)Cl)cc3Cl)cc2)CC1 | 100 to 103
